# Results: patent US6887864B2, “Azepane derivatives” (Hoffmann-La Roche Inc., priority 2002, dated 2005)
# Experiments:
# [1] = target: T1, AKT (Homo sapiens, UniProt P31749); assay: cellular AKT activity assay (GSK-3 Ser21/Ser9 phosphorylation in LNCaP cells, immunoblot); type: cell-based; parameters: endogenous in cells; host or cells: LNCaP prostate cancer cells; conditions: 1 h treatment, inhibitors 6 μM to 187 nM, read-out: values found for effect on AKT activity in living cells (level of GSK-3-Ser21/Ser9 phosphorylation)
# T1 sequence (P31749 whole entry): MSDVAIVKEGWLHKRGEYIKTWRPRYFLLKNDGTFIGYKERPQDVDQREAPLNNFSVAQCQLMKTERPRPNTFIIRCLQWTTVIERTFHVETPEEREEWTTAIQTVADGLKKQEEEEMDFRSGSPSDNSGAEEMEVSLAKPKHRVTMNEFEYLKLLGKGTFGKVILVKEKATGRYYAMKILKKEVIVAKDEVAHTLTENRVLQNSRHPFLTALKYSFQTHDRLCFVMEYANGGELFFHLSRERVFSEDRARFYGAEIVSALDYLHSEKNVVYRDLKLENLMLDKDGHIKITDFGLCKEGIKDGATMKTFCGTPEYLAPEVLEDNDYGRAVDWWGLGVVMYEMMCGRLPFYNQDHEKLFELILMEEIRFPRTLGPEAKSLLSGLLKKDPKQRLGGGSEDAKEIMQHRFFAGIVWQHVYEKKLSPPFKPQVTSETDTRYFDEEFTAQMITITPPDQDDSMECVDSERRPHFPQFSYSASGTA
# Text: Additionally to Example 3 the acticity of compounds according to the invention was studied on a cellular AKT activity assay as follows:
# Prostate cancer cell line LNCaP was passaged in RPMI 1640 with 10% fetal calf serum, 50 units/ml penicillin, and 50 units/ml streptomycin. LNCaP cells were characterized by a constitutive activation of AKT. Constitutive active AKT phosphorylates glycogen synthase kinase-3 (GSK-3) at Ser21/Ser9 in LNCaP cells. To measure the effect of compounds on the activity of AKT in living cells, LNCaP cells were treated with various concentrations of inhibitors (6 μM to 187 nM). After 1 h, the cells were harvested in lysis solution containing 50 mM HEPES (pH 7.0), 150 mM NaCl, 1.5 mM MgCl2 ,1 mM EGTA, 100 mM NaF, 10 mM sodium PPi, 10% glycerol, 1% Triton X-100, 1 mM Na3 […], […], 5 mM iodoacetic acid, and […]. The proteins from whole cell extracts were electrophoresed on 7.5% SDS/PAGE gels. Afterwards, proteins were transferred onto Nitrocellulose filter and immunoblotting using the enhanced chemiluminescence (ECL) detection system (Amersham Pharmacia) was performed. The level of GSK-3-Ser21/Ser9 phosphorylation was thereby determined using polyclonal anti-P-GSK-3-Ser-21/9 antibody (rabbit; New England Biolabs).
# [2] = mouse plasma stability test; type: in vitro ADME; conditions: 10 μmol/1, 37° C.
# Protocol: After defined periods of time with respect to the addition of said compounds to the mouse-plasma (t=0, 0.5, 1, 2, 4 h ), equal portions were isolated from the plasma, separated with HPLC and analyzed by mass spectrometry. During all these steps, the temperature was kept constant at 37° C. In the following table, the plasma stability of compounds according to the invention was compared to one of the selected compounds from EP 0 663 393 A1.
# [3] = target: T1, AKT; assay: ELISA-based AKT kinase assay; type: biochemical; parameters: made in house; host or cells: Sf9 insect cells; conditions: AKT expressed in Sf9 cells, substrate peptide 300 nM, ATP 5 μM, 30 min at room temperature
# Text: In order to study AKT inhibitory activity of the compounds according to the invention, an ELISA-based assay was developed for AKT. The assay design utilized a N-terminally biotinylated substrate peptide. When this substrate was phosphorylated by the AKT kinase, the product was recognized by a substrate/sequence-specific antibody known to bind to particular phosphorylated serine residues. For this assay, a Biotin-[…] peptide and anti-phospho-GSK-3α Ser21 antibody (rabbit) from Cell Signaling Technology/New England Biolabs were used.
# The enzymatic reactions were carried out with AKT expressed in Sf9 cells (100 ng/reaction), substrate peptide (300 nM) and ATP (5 μM) in the absence or presence of different concentrations of compounds dissolved in DMSO. The final concentration of DMSO was 1%. The mixtures were reacted for 30 min at room temperature in assay buffer containing 50 mM Tris-HCl, 10 mM MgCl2, 1.0 mM DTT, 2 mM Na3VO4, pH 7.5, in a final volume of 40 μl. The reaction was stopped with addition of 10 μl 0,12 M EDTA/0,12 M EGTA. The reaction mixture was transferred to a SA-coated micro-titer-plate. After 1 h incubation, the plate was washed with PBS using a 384-well Embla plate washer. Anti-phospho-GSK-3α Ser21 antibody was added. After 1 h incubation the plate was washed with PBS and bound antibody was detected by addition of polyclonal<Rabbit>S-IgG-POD-conjugate from Roche Diagnostics GmbH. After 1 h incubation, the plate was washed with PBS. Amount of phosphorylated peptide was measured by an enzyme-catalyzed color reaction (ABTS conversion) and photometrical measurement at 405 nm.
# Calculation of IC50 values were performed with ActivityBase.
melting point,IC50 [1],Decrease [%] (after 4 h) [2],IC50 [3],Structure (SMILES)
230 to 245 °C,,,,CN(C)c1ccc(O)c(C(=O)c2ccc(C(=O)N[C@@H]3CCCNC[C@H]3NC(=O)c3ccncc3)cc2)c1.Cl
265 °C,,,,CC1(C)CCCNC1c1ccc(O)c(C(=O)c2ccc(C(=O)N[C@@H]3CCCNC[C@H]3NC(=O)c3ccncc3)cc2)c1F.Cl (stereo partly drawn)
108 to 114 °C,,,,Cl.O=C(N[C@@H]1CCCNC[C@H]1NC(=O)c1ccncc1)c1ccc(C(=O)c2cc(O)ccc2O)cc1
200 to 222 °C,,6.2%,,"COc1ccc(O)c(C(=O)c2ccc(C(=O)N[C@@H]3CCCNC[C@H]3NC(=O)c3ccncc3)cc2)c1F.Cl [Example 1a, N-{(3R, 4R)-4-[4-(2-Fluoro-6-hydroxy-3-methoxy-benzoyl)-benzoylamino]-azepan-3-yl}-isonicotinamide hydrochloride]"
195 to 210 °C,,,,Cl.O=C(N[C@@H]1CCCNC[C@H]1NC(=O)c1ccncc1)c1ccc(C(=O)c2cc(C3CCCCN3)ccc2O)cc1 (stereo partly drawn)
255 to 260 °C,,,,Cc1ccc2cc(O)c(C(=O)c3ccc(C(=O)N[C@@H]4CCCNC[C@H]4NC(=O)c4ccncc4)cc3)c(F)c2n1.Cl
194 to 198 °C,,,,CC1(C)CCCN(c2ccc(O)c(C(=O)c3ccc(C(=O)N[C@@H]4CCCNC[C@H]4NC(=O)c4ccncc4)cc3)c2)C1.Cl
215 to 220 °C,,,,Cl.O=C(N[C@@H]1CCCNC[C@H]1NC(=O)c1ccncc1)c1ccc(C(=O)c2c(O)ccc3ncccc23)cc1
230 to 240 °C,,,,Cl.O=C(N[C@@H]1CCCNC[C@H]1NC(=O)c1ccncc1)c1ccc(C(=O)c2c(O)ccc3c2OCCO3)cc1
181 to 184 °C,3000 nM,21.9%,7 nM,"Cc1ccc(O)c(C(=O)c2ccc(C(=O)N[C@@H]3CCCNC[C@H]3NC(=O)c3ccncc3)cc2)c1F.Cl [Example 2-1, N-{(3R,4R)-4-[4-(2-Fluoro-6-hydroxy-3-methyl-benzoyl)-benzoylamino]-azepan-3-yl}-isonicotinamide hydrochloride]"
215 to 219 °C,1000 nM,,16 nM,"Cc1ccc(O)c(C(=O)c2ccc(C(=O)N[C@@H]3CCCNC[C@H]3NC(=O)c3ccncc3)cc2)c1.Cl [Example 2-6, N-{(3R,4R)-4-[4-(2-Hydroxy-5-methyl-benzoyl)-benzoylamino]-azepan-3-yl}-isonicotinamide hydrochloride]"
185 to 193 °C,> 24000 nM,,116 nM,"COc1ccc(O)c(C(=O)c2ccc(C(=O)N[C@@H]3CCCNC[C@H]3NC(=O)c3ccncc3)cc2)c1OC.Cl [Example 2-4, N-{(3R,4R)-4-[4-(6-Hydroxy-2,3-dimethoxy-benzoyl)-benzoylamino]-azepan-3-yl}-isonicotinamide hydrochloride]"

# The next lines start with the compound.
Structure (SMILES),melting point,IC50 [1],Decrease [%] (after 4 h) [2],IC50 [3]
Cl.NCc1ccc(O)c(C(=O)c2ccc(C(=O)N[C@@H]3CCCNC[C@H]3NC(=O)c3ccncc3)cc2)c1,215 to 218 °C,,,
Cl.O=C(N[C@@H]1CCCNC[C@H]1NC(=O)c1ccncc1)c1ccc(C(=O)c2c(O)cc3cccnc3c2F)cc1,247 to 251 °C,,,
COc1ccc(O)c(C(=O)c2ccc(C(=O)N[C@@H]3CCCNC[C@H]3NC(=O)c3cc(C)c(O)c(C)c3)cc2)c1F.Cl,180 to 183 °C,,,
Cl.O=C(N[C@@H]1CCCNC[C@H]1NC(=O)c1ccncc1)c1ccc(C(=O)c2cc(N3CCCCC3)ccc2O)cc1,218 to 224 °C,,,
"CSc1ccc(O)c(C(=O)c2ccc(C(=O)N[C@@H]3CCCNC[C@H]3NC(=O)c3ccncc3)cc2)c1.Cl [Example 2-2, N-{(3R,4R)-4-[4-(6-Hydroxy-3-methylsulfanyl-benzoyl)-benzoylamino]-azepan-3-yl}-isonicotinamide hydrochloride]",183 to 185 °C,1500 nM,26.9%,11 nM
Cc1cc(C(=O)N[C@@H]2CNCCC[C@H]2NC(=O)c2ccc(C(=O)c3cc(N(C)C)ccc3O)cc2)cc(C)c1O.Cl,217 to 219 °C,,,
CC1(C)CCN(c2ccc(O)c(C(=O)c3ccc(C(=O)N[C@@H]4CCCNC[C@H]4NC(=O)c4ccncc4)cc3)c2)CC1.Cl,229 to 234 °C,,,
Cc1cc(C(=O)c2ccc(C(=O)N[C@@H]3CCCNC[C@H]3NC(=O)c3ccncc3)cc2)c(O)cn1.Cl,203 to 208 °C,,,
CN(C)c1ccc(O)c(C(=O)c2ccc(C(=O)N[C@@H]3CCCNC[C@H]3NC(=O)c3ccc(O)cc3)cc2)c1.Cl,203 to 206 °C,,,
"COc1ccc(O)c(C(=O)c2ccc(C(=O)N[C@@H]3CCCNC[C@H]3NC(=O)c3ccncc3)cc2)c1.Cl [Example 2-5, N-{(3R,4R)-4-[4-(2-Hydroxy-5-methoxy-benzoyl)-benzoylamino]-azepan-3-yl}-isonicotinamide hydrochloride]",230 to 240 °C,2000 nM,,15 nM
CC(C)Nc1ccc(O)c(C(=O)c2ccc(C(=O)N[C@@H]3CCCNC[C@H]3NC(=O)c3ccncc3)cc2)c1.Cl,227 to 230 °C,,,
COc1ccc(O)c(C(=O)c2ccc(C(=O)N[C@@H]3CCCNC[C@H]3NC(=O)c3ccncn3)cc2)c1F.Cl,256 to 265 °C,,,
COc1ccc(O)c(C(=O)c2ccc(C(=O)N[C@@H]3CCCNC[C@H]3NC(=O)c3ccc(O)cc3)cc2)c1F.Cl,190 to 196 °C,,,
CC(C)(C)c1ccc2cc(O)c(C(=O)c3ccc(C(=O)N[C@@H]4CCCNC[C@H]4NC(=O)c4ccncc4)cc3)c(F)c2n1.Cl,215 °C,,,
Cc1cccc(C(=O)c2ccc(C(=O)N[C@@H]3CCCNC[C@H]3NC(=O)c3ccncc3)cc2)c1.Cl,190 to 196 °C,,,
COc1ccc(O)c(C(=O)c2ccc(C(=O)N[C@@H]3CCCNC[C@H]3NC(=O)c3ccnc(N)c3)cc2)c1F.Cl,223 to 241 °C,,,
CC(C)Oc1ccc(O)c(C(=O)c2ccc(C(=O)N[C@@H]3CCCNC[C@H]3NC(=O)c3ccncc3)cc2)c1.Cl,243 to 249 °C,,,
